Reference: patent publication US9295697B2, “Episomal reprogramming with chemicals” (Cellular Dynamics International, Inc., priority 2009, dated 2016)

Key:
[1] = test system: human foreskin fibroblasts; assay: Episomal reprogramming of human foreskin fibroblasts with small molecules on MEF feeder cells, alkaline phosphatase positive colonies (Example 2); type: cell-based
Experimental: FIGS. 5A-5C. Improving episomal reprogramming efficiency with small molecules. FIG. 5A. Effects of PD0325901 (P, 0.5 μM), CHIR99021(C, 3 μM), A-83-01(A, 0.5 μM), hLIF (L, 1000 U/ml) and HA-100 (H, 10 μM) on episomal reprogramming. FIG. 5B Temporal requirement of small molecule treatment for improved episomal reprogramming. Transfected human foreskin fibroblasts were plated to MEF feeder cells. MEF-conditioned human ESC medium supplemented with 100 ng/ml bFGF (CM100) and small molecules was used to support reprogramming. Alkaline phosphatase positive iPSC colonies were counted on day 22-23 post-transfection. The number of iPSC colonies was from ˜0.33×10^6 input cells. Data shown are mean±standard error (s.e.m.) (n=3). FIG. 5C. Differentiation of the newly derived iPSCs (p3) in the presence of small molecules. […] The addition of bFGF in the culture medium had no effect. Black arrow: undifferentiated iPSC colonies; white arrows: differentiated colonies. Scale bars: 100 μm.
FIGS. 6A-6D. Developing feeder-free conditions for episomal reprogramming. FIG. 6A. Effects of MEF feeder cells, Matrigel™ and culture media on episomal reprogramming. Transfected human foreskin fibroblasts (p6) were plated to MEF feeder cell-seeded or Matrigel™-coated 10-cm dishes, and subjected to different reprogramming culture conditions. Alkaline phosphatase positive (AP^+) colonies were counted on day 18-21 post-transfection. The number of AP+ colonies was from ˜0.33×10^6 input cells. Data shown are mean±s.e.m. (n=3). N2B27: DMEM/F12 medium supplemented with N-2 and B-27; N2B27-100: N2B27 medium supplemented with 100 ng/ml bFGF. *marks piPSCs. FIG. 6B. Bright-field images of a piPSC colony from test 2 and a human ESC-like iPSC colony from test 1, 3 and 4. Scale bars: 100 μm. FIG. 6C. Quantitative RT-PCR analysis of OCT4 and NANOG expression in piPSC clone 1 to 4 (p3). Total: both endogenous and transgene expression. Human H1 ESCs (H1ESC, p32) were used as a control. Data shown are mean±s.e.m. (n=3). FIG. 6D. Temporal requirement of small molecule treatment for feeder-free episomal reprogramming using defined culture media. Transfected human foreskin fibroblasts (p7) were plated to Matrigel™-coated 10-cm dishes. N2B27-100 medium supplemented with PCALH was used to support reprogramming for different time windows (stage 2) followed by mTeSR1 for expansion. Alkaline phosphatase positive iPSC colonies were counted on day 22 post-transfection. The number of iPSC colonies was from ˜0.33×10^6 input cells. Data shown are mean±s.e.m. (n=3).
Episomal reprogramming vectors containing expression cassettes for human OCT4, SOX2, NANOG, LIN28, c-MYC, KLF4 and SV40LT transgenes were as previously described (Yu et al., 2009). Specifically, vector pEP4EO2SCK2MEN2L and pEP4EO2SET2K (combination 4) were used for reprogramming optimization. About 7.3 μg of vector pEP4EO2SCK2MEN2L and 3.2 μg of pEP4EO2SET2K were co-transfected into human neonatal foreskin fibroblasts via nucleofection (NHDF-VPD-1001 with U-20 program, Amaxa, Walkersville, Md.). Transfected fibroblasts (˜1.0×10^6 cells per nucleofection) were plated directly to 3×10-cm MEF-seeded dishes or 3×10-cm Matrigel™-coated dishes in fibroblast culture medium. The next day after transfection, fibroblast medium was replaced with MEF-conditioned human ESC medium supplemented with 100 ng/ml zbFGF (CM100), or chemically defined N2B27 medium (N2B27), or N2B27 medium supplemented with 100 ng/ml zbFGF (N2B27-100), or mTeSR1. The N2B27 medium consists of DMEM/F12 culture medium supplemented with N-2 supplement (1×, Invitrogen), B-27 supplement (1×, Invitrogen), 0.1 mM non-essential amino acids, 1 mM GlutaMAX, and 0.1 mM β-mercaptoethanol. Where applied, small molecules PD0325901 (P, 0.5 μM), CHIR99021(C, 3 μM), A-83-01(A, 0.5 μM) (all from Stemgent, San Diego, Calif.), hLIF (L, 1000 U/ml, Millipore, Billerica, Mass.) and HA-100 (H, 10 μM) were added to reprogramming culture. Culture medium was refreshed every two days. […]

[2] = test system: human foreskin fibroblasts; assay: Episomal reprogramming of human foreskin fibroblasts with chemical compounds on MEF feeders, alkaline phosphatase positive iPS cell colonies (Example 1); type: cell-based; conditions: for effect on episomal reprogramming when added to PD0325901, CHIR99021 and A-83-01: in combination with PD0325901 (0.5 μM), CHIR99021 (3 μM), A-83-01 (0.5 μM)
From the text: FIGS. 1A-1C. Improving episomal reprogramming of human foreskin fibroblasts with small chemical compounds. FIG. 1A. Episomal reprogramming vectors. pEF: the eukaryotic elongation factor 1α promoter; pCMV: the cytomegalovirus immediate-early promoter. Transgenes and other features of vectors are indicated by different colors as shown. FIG. 1B. Effects of different combinations of chemical compounds on episomal reprogramming efficiency. FF medium: human foreskin fibroblast culture medium; CM: human ES cell culture medium previously conditioned with irradiated mouse embryonic fibroblast feeder cells. bFGF was used at 100 ng/ml final concentration. B: BIX01294 (1 μM); P: PD0325901 (0.5 μM); C: CHIR99021 (3 μM); A: A-83-01 (0.5 μM). Total: total # of alkaline phosphatase positive iPS cell colonies; Large: # of large-size good undifferentiated alkaline phosphatase positive iPS cell colonies. FIG. 1C. Images of a good iPS cell colony obtained by episomal reprogramming in the presence of chemical compounds. Left: bright-field; right: alkaline phosphatase staining.
FIGS. 2A-2B. Improving episomal reprogramming of human foreskin fibroblasts with small chemical compounds. FIG. 2A. Effects of bFGF and different combinations of chemical compounds on episomal reprogramming efficiency. FF medium: human foreskin fibroblast culture medium; CM: human ES cell culture medium previously conditioned with irradiated mouse embryonic fibroblast feeder cells. bFGF was used at 100 ng/ml final concentration. H: HA-100 (10 μM); B: BIX01294 (1 μM); P: PD0325901 (0.5 μM); C: CHIR99021 (3 μM); A: A-83-01 (0.5 μM); L: hLIF (10 ng/ml). Total: total # of alkaline phosphatase positive iPS cell colonies; Large: # of large-size good undifferentiated alkaline phosphatase positive iPS cell colonies. FIG. 2B. Timing of chemical compound treatment on episomal reprogramming efficiency. CM supplemented with bFGF (100 ng/ml) and HA-100 (10 μM) was used in reprogramming culture.
FIGS. 4A-4B. Episomal reprogramming in defined medium supplemented with chemical compounds. FIG. 4A. Effect of different culture medium on episomal reprogramming in the presence of PD0325901 (0.5 μM), CHIR99021 (3 μM), A-83-01 (0.5 μM) and hLIF (10 ng/ml). FF medium: human foreskin fibroblast culture medium; CM: human ES cell culture medium previously conditioned with irradiated mouse embryonic fibroblast feeder cells. bFGF was used at 100 ng/ml final concentration. H: HA-100 (10 μM); B: BIX01294 (1 μM); P: PD0325901 (0.5 μM); C: CHIR99021 (3 μM); A: A-83-01 (0.5 μM); L: hLIF (10 ng/ml). Total: total # of alkaline phosphatase positive iPS cell colonies; Large: # of large-size good undifferentiated alkaline phosphatase positive iPS cell colonies. FIG. 4B. Sketch of the three-step reprogramming process for the derivation of normal human ES cell-like iPS cells and piPS cells.
For episomal reprogramming of human somatic cells, human foreskin fibroblasts, episomal vectors (FIG. 1A, 7.3 μg of pEP4EO2SCK2MEN2L and 3.2 μg of pEP4EO2SET2K) (Yu et al., 2009) were cotransfected into 1×10^6 cells via nucleofection (NHDF-VPD-1001 with program U-20, Amaxa, Walkersville, Md.). Transfected foreskin fibroblasts from each nucleofection were directly plated to 3×10-cm MEF-seeded dishes in fibroblast culture medium. For adult skin fibroblasts, 7.3 μg of pEP4EO2SCK2MEN2L and 6.4 μg of pEP4EO2SET2K were cotransfected into 1×10^6 cells via nucleofection (NHDF-VPD-1001 with program U-20, Amaxa). Transfected adult skin fibroblasts from each nucleofection were directly plated to 1×10-cm MEF-seeded dish in fibroblast culture medium due to lower cell survival. […]

[3] = LIF added to PD0325901, CHIR99021 and A-83-01

Question: Which “replacement of HA-100 in episomal reprogramming” value [1] does the source give for `Cc1cncc2cccc(S(=O)(=O)N3CCCNC[C@@H]3C)c12` [H-1152] here?
Answer: could not be replaced

Question: For `COc1cc2nc(N3CCCN(C)CC3)nc(NC3CCN(Cc4ccccc4)CC3)c2cc1OC` [BIX01294], which “effect on reprogramming by episomal vectors, compound on its own” value ([2]; BIX01294 1 μM) is on record?
Answer: could improve reprogramming

Question: And the “effect on episomal reprogramming when added to PD0325901, CHIR99021 and A-83-01” value [2]?
Answer: no or only slight benefit

Question: What does the source list for `O=S(=O)(c1cccc2cnccc12)N1CCNCC1` [HA-100]?
Answer: effect on episomal reprogramming, alone / on its own ([1]; CM100, MEF feeder cells): minimal effect; episomal reprogramming efficiency in the presence of PD0325901, CHIR99021, A-83-01 and hLIF ([1]; HA-100 10 μM): further increased

Question: Which “replacement of HA-100 in episomal reprogramming” value [1] does the source give for `Cc1ccc2c(c1)C(=O)C1(O)CCN(c3ccccc3)C1=N2` (centres unmarked) [blebbistatin] here?
Answer: could not be replaced

Question: How did the “effect on episomal reprogramming, alone / on its own” value ([1]; CM100, MEF feeder cells) turn out when `Cc1cccc(-c2nn(C(=S)Nc3ccccc3)cc2-c2ccnc3ccccc23)n1` [A-83-01, 3-(6-Methyl-2-pyridinyl)-N-phenyl-4-(4-quinolinyl)-1H-pyrazole-1-carbothioamide] was run?
Answer: minimal effect

Question: What about the “effect on episomal reprogramming, together with the MEK inhibitor PD0325901” value ([1]; CM100, MEF feeder cells) of the same compound?
Answer: minimal effect

Question: With hLIF: human leukemia inhibitory factor as the compound, how does the “first appearance of iPS cells, day post transfection” value [2, 3] read?
Answer: ~14 days

Question: And the “first appearance of iPS cells, earlier by” value [2, 3]?
Answer: 3 to 4 days

Question: And the “large iPS cell colonies” value [2, 3]?
Answer: more large iPS cell colonies

Question: And the “effect on episomal reprogramming when added to PD0325901, CHIR99021 and A-83-01” value [2]?
Answer: further facilitated

Question: What about the “effect of hLIF on episomal reprogramming efficiency” value ([1]; hLIF 1000 U/ml) of the same compound?
Answer: did not significantly improve

Question: What about the “proliferation of reprogramming intermediates” value ([1]; hLIF 1000 U/ml) of the same compound?
Answer: increased
